Source: patent US20250092056A1, “URACIL DERIVATIVES HAVING VIRUS REPLICATION INHIBITORY ACTIVITY AND PHARMACEUTICAL COMPOSITION COMPRISING THE SAME” (Shionogi & Co., Ltd., priority 2022, published 2025)
pEC50, pIC50: −log10 of the molar value. Where two headings read alike, the source gives them in different places.

Legend:
[1] = test system: SARS-CoV-2; test: Cytopathic effect (CPE) suppression effect confirmation test using HEK293T/ACE2-TMPRSS2 cells; type: cell-based; settings: Severe acute respiratory syndrome coronavirus 2, HEK-293T, 72 h
[2] = molecular target: Recombinant SARS-CoV-2 3CL Protease (Severe acute respiratory syndrome coronavirus 2 (2019-nCoV) (SARS-CoV-2), UniProt P0DTD1); test: biochemical; type: biochemical
[3] = read-out: EC50 (50% SARS-CoV-2 infected cell death inhibitory concentration), class, HEK293T/ACE2-TMPRSS2 cells, CPE suppression, CellTiter-Glo 2.0 after 3 days culture
[4] = 50% SARS-CoV-2 3CL protease inhibitory concentration, read-out: IC50
[5] = HEK293T/ACE2-TMPRSS2 cells, CPE suppression, CellTiter-Glo 2.0 after 3 days culture, read-out: EC50 (50% SARS-CoV-2 infected cell death inhibitory concentration), class
[6] = read-out: EC50 (50% SARS-CoV-2 infected cell death inhibitory concentration), HEK293T/ACE2-TMPRSS2 cells, CPE suppression, CellTiter-Glo 2.0 after 3 days culture

Row | Compound | pEC50 [1, 3] | pIC50 [2, 4] | pEC50 [1, 5] | pIC50 [2] | pEC50 [1, 6]
1 | Cc1cncc(-n2c(=O)c(Oc3cc(F)c(F)c(F)c3)c(-c3cc4ccccc4s3)n(CC#N)c2=O)c1 [Compound I-018] | > 7.00 | > 8.00 |  |  | 
2 | Cc1cncc(-n2c(=O)c(Cc3cc(F)c(F)c(F)c3)c(-c3cc4ccccc4s3)n(CC#N)c2=O)c1 [Compound I-019] | > 7.00 | > 8.00 |  |  | 
3 | Cc1cncc(-n2c(=O)c(-c3ccc(F)c(Cl)c3)c(-c3cc4ccccc4s3)n(CC#N)c2=O)c1 [Compound I-020] | > 7.00 | > 8.00 |  |  | 
4 | N#CCn1c(N2CC3(CCCO3)C2)c(-c2ccc(F)c(Cl)c2)c(=O)n(-c2cncc(Cl)c2)c1=O [Compound I-021] | > 7.00 | > 8.00 |  |  | 
5 | Cc1cncc(-n2c(=O)c(-c3ccc(F)c(Cl)c3)c(-c3cnc(C)nc3)n(CC#N)c2=O)c1 [Compound I-022] | > 7.00 | > 8.00 |  |  | 
6 | Cc1cncc(-n2c(=O)c(-c3ccc(F)c(Cl)c3)c(N3Cc4ccccc4C3=O)n(CC#N)c2=O)c1 [Compound I-023] | > 7.00 | > 8.00 |  |  | 
7 | Cc1cncc(-n2c(=O)c(-c3ccc(F)c(Cl)c3)c(N(C)Cc3ccccc3)n(CC#N)c2=O)c1 [Compound I-025] | > 7.00 | > 8.00 |  |  | 
8 | Cc1cncc(-n2c(=O)c(-c3ccc(F)c(Cl)c3)c(-c3cc4ccccc4[nH]3)n(CC#N)c2=O)c1 [Compound I-026] | > 7.00 | > 8.00 |  |  | 
9 | Cc1cncc(-n2c(=O)c(-c3ccc(F)c(Cl)c3)c(-c3ccc(C(=O)OC(C)(C)C)cc3)n(CC#N)c2=O)c1 [Compound I-027] | 6.00 to 7.00 | < 7.00 |  |  | 
10 | Cc1cncc(-n2c(=O)c(-c3ccc(F)c(Cl)c3)c(Oc3cccc4[nH]ccc34)n(CC#N)c2=O)c1 [Compound I-028] | > 7.00 | > 8.00 |  |  | 
11 | Cc1cncc(-n2c(=O)c(-c3ccc(F)c(Cl)c3)c(Oc3cccc4ccccc34)n(CC#N)c2=O)c1 [Compound I-029] | > 7.00 | > 8.00 |  |  | 
12 | Cc1cncc(-n2c(=O)c(-c3ccc(F)c(Cl)c3)c(Oc3ccc(F)cc3Cl)n(CC#N)c2=O)c1 [Compound I-030] | > 7.00 | > 8.00 |  |  | 
13 | Cc1cncc(-n2c(=O)c(Cc3cc(F)c(F)c(F)c3)c(-c3ccc(C(F)(F)F)c(Cl)c3)n(CC#N)c2=O)c1 [Compound I-031] | > 7.00 | > 8.00 |  |  | 
14 | Cc1cc(-n2c(=O)c(-c3cc(F)c(F)c(Cl)c3)c(N3CC4(CCOCC4)C3)n(CC#N)c2=O)cc(=O)[nH]1 [Compound I-032] | 6.00 to 7.00 | > 8.00 |  |  | 
15 | Cc1cc(-n2c(=O)c(-c3cc(F)c(F)c(Cl)c3)c(N3CC4(C3)CC(F)(F)C4)n(CC#N)c2=O)cc(=O)[nH]1 [Compound I-033] | 6.00 to 7.00 | > 8.00 |  |  | 
16 | Cc1cc(-n2c(=O)c(-c3cc(F)c(F)c(Cl)c3)c(N3CCC(C(F)(F)F)CC3)n(CC#N)c2=O)cc(=O)[nH]1 [Compound I-034] |  | 7.00 to 8.00 | > 7.00 |  | 
17 | Cc1cnnc(-n2c(=O)c(Cc3cc(F)c(F)c(F)c3)c(N3C[C@H]4C[C@@H](C3)O4)n(CC#N)c2=O)c1 [Compound I-035] | 6.00 to 7.00 | < 7.00 |  |  | 
18 | Cc1cnnc(-n2c(=O)c(Cc3cc(F)c(F)c(F)c3)c(N3CC4(CCOC4)C3)n(CC#N)c2=O)c1 [Compound I-036] | 6.00 to 7.00 | < 7.00 |  |  | 
19 | N#CCn1c(N2CC3(CCOC3)C2)c(Cc2cc(F)c(F)c(F)c2)c(=O)n(-c2cnc3ccccn23)c1=O [Compound I-037] |  | 7.00 to 8.00 | 6.00 to 7.00 |  | 
20 | N#CCn1c(N2CC3CCC(CC3)C2)c(Cc2cc(F)c(F)c(F)c2)c(=O)n(-c2cnc3ccccn23)c1=O [Compound I-038] | > 7.00 |  |  | 7.00 to 8.00 | 
21 | Cc1cnnc(-n2c(=O)c(Cc3cc(F)c(F)c(F)c3)c(N3Cc4ccccc4C3)n(CC#N)c2=O)c1 [Compound I-039] | > 7.00 | > 8.00 |  |  | 
22 | N#CCn1c(N2Cc3ccccc3C2)c(Cc2cc(F)c(F)c(F)c2)c(=O)n(-c2cnc3ccccn23)c1=O [Compound I-040] | > 7.00 | > 8.00 |  |  | 
23 | CCCOc1cc(Cl)cc(-c2c(N3Cc4ccccc4C3)n(CC#N)c(=O)n(-c3cncc(C)c3)c2=O)c1 [Compound I-041] | > 7.00 | > 8.00 |  |  | 

Row | Compound | pEC50 [1, 3] | pIC50 [2, 4] | pEC50 [1, 5] | pIC50 [2] | pEC50 [1, 6]
24 | Cc1cncc(-n2c(=O)c(-c3cccc(Cl)c3)c(N3Cc4ccccc4C3)n(CC#N)c2=O)c1 [Compound I-042] | > 7.00 | > 8.00 |  |  | 
25 | N#CCn1c(N2CC3(CCOC3)C2)c(-c2ccc(F)c(Cl)c2)c(=O)n(-c2cnc3ccccn23)c1=O [Compound I-043] |  | 7.00 to 8.00 | 6.00 to 7.00 |  | 
26 | Cc1cncc(-n2c(=O)c(-c3ccc(F)c(Cl)c3)c(N3CCC4(CCNC4=O)CC3)n(CC#N)c2=O)c1 [Compound I-044] | 6.00 to 7.00 | > 8.00 |  |  | 
27 | Cc1cncc(-n2c(=O)c(-c3ccc(F)c(Cl)c3)c(N3CC4(CCOC4)C3)n(CC#N)c2=O)c1 [Compound I-045] | > 7.00 | > 8.00 |  |  | 
28 | Cc1cncc(-n2c(=O)c(Cc3cc(F)c(F)c(F)c3)c(/C=C/CO)n(CC#N)c2=O)c1 [Compound I-047] | 6.00 to 7.00 | < 7.00 |  |  | 
29 | Cc1cncc(-n2c(=O)c(Cc3cc(F)c(F)c(F)c3)c(-c3ccc(C)c(C)c3)n(C3(C#N)CC3)c2=O)c1 [Compound I-049] |  | 7.00 to 8.00 | 6.00 to 7.00 |  | 
30 | Cc1cncc(-n2c(=O)c(Cc3cc(F)c(F)c(F)c3)c(CCCO)n(CC#N)c2=O)c1 [Compound I-052] |  | 7.00 to 8.00 | > 7.00 |  | 
31 | N#CCn1c(N2Cc3cn[nH]c3C2)c(Cc2cc(F)c(F)c(F)c2)c(=O)n(-c2cc[nH]c(=O)c2)c1=O [Compound I-053] |  | 7.49 |  |  | 5.58
32 | N#CCn1c(Cl)c(-c2ccc(F)c(Cl)c2)c(=O)n(-c2cncc(Cl)c2)c1=O [Compound I-055] |  | 7.00 to 8.00 | 6.00 to 7.00 |  | 
33 | Cc1ccc(-c2c(Cc3cc(F)c(F)c(F)c3)c(=O)n(-c3cncc(Cl)c3)c(=O)n2CC#N)cc1C [Compound I-058] | > 7.00 | > 8.00 |  |  | 
34 | N#CCn1c(N2CC3(CCOC3)C2)c(Cc2cc(F)c(F)c(F)c2)c(=O)n(-c2cncc(Cl)c2)c1=O [Compound I-059] | > 7.00 | > 8.00 |  |  | 
35 | Cc1cncc(-n2c(=O)c(Cc3cc(F)c(F)c(F)c3)c(-c3ccc(C)c(C)c3)n(CC#N)c2=O)c1 [Compound I-060] |  | 8.33 |  |  | 7.72
36 | N#CCn1c(N2Cc3cn[nH]c3C2)c(Cc2cc(F)c(F)c(F)c2)c(=O)n(-c2cncc(Cl)c2)c1=O [Compound I-064] | > 7.00 | > 8.00 |  |  | 
37 | Cc1cncc(-n2c(=O)c(Cc3cc(F)c(F)c(F)c3)c(-c3ccc(C)c(C)c3)n(C(C)(C)C#N)c2=O)c1 [Compound I-065] | > 7.00 | > 8.00 |  |  | 
38 | Cc1cncc(-n2c(=O)c(-c3ccc(F)c(Cl)c3)c(-c3ccc(C(F)(F)F)c(Cl)c3)n(CC#N)c2=O)c1 [Compound I-066] | > 7.00 | > 8.00 |  |  | 
39 | N#CCn1c(N2CCC3(CC2)CNC(=O)O3)c(-c2ccc(F)c(Cl)c2)c(=O)n(-c2cncc(Cl)c2)c1=O [Compound I-067] | 6.00 to 7.00 | > 8.00 |  |  | 
40 | CN1CCN(c2c(-c3ccc(F)c(Cl)c3)c(=O)n(-c3cncc(Cl)c3)c(=O)n2CC#N)CC1=O [Compound I-068] | > 7.00 | > 8.00 |  |  | 
41 | N#CCn1c(N2CCC(C(F)(F)F)CC2)c(-c2ccc(F)c(Cl)c2)c(=O)n(-c2cncc(Cl)c2)c1=O [Compound I-069] | > 7.00 | > 8.00 |  |  | 
42 | Cc1cncc(-n2c(=O)c(-c3ccc(F)c(Cl)c3)c(-c3ccc(C4CC4)cc3)n(CC#N)c2=O)c1 [Compound I-071] | > 7.00 | > 8.00 |  |  | 
43 | CC(C)(O)C1CN(c2c(-c3ccc(F)c(Cl)c3)c(=O)n(-c3cncc(Cl)c3)c(=O)n2CC#N)C1 [Compound I-072] |  | 9.18 |  |  | 8.28
44 | Cc1cncc(-n2c(=O)c(-c3ccc(F)c(Cl)c3)c(N3CC4(C3)CC(F)(F)C4)n(CC#N)c2=O)c1 [Compound I-073] | > 7.00 | > 8.00 |  |  | 
45 | Cc1cncc(-n2c(=O)c(-c3ccc(F)c(Cl)c3)c(N3Cc4cn[nH]c4C3)n(CC#N)c2=O)c1 [Compound I-074] | > 7.00 | > 8.00 |  |  | 
46 | Cc1cncc(-n2c(=O)c(-c3ccc(F)c(Cl)c3)c(N3Cc4cccnc4C3)n(CC#N)c2=O)c1 [Compound I-075] | > 7.00 | > 8.00 |  |  | 
